Results taken from patent publication US20200093103A1, “BREEDING WATER FOR ANGUILLIFORMES AND METHOD FOR REARING ANGUILLIFORMES” (SHIN NIPPON BIOMEDICAL LABORATORIES, LTD., priority 2016, published 2020).

Test system: Anguilla japonica leptocephali
Assay: Induction of Anguilla japonica metamorphosis by T4 treatment in 23° C. breeding water
Assay type: in vivo
Design: key: Y: Metamorp completed (seed production completed).; Nd: Dead
Description: Stage 1: Starting phase of metamorphosis. The rostral end is rounded, and intestinal degeneration starts.
Stage 2: Peak phase of metamorphosis. Intestinal degeneration becomes pronounced. In the second half, the anus reaches to near the last vertical blood vessel (VBV last).
Stage 3: Late phase of metamorphosis. The preanal length (PAL) becomes equal to or shorter than the last vertical blood vessel length (VBV last Length) (PAL VBV last Length). The body height is apparently low.
Stage 4: Pre-glass eel stage. Almost the eel form, but the body height still remains. Melanophores on the body surface or endogenous melanophores are not yet seen.
Elver stage: Juvenile stage. Food intake can be identified.
A thyroid hormone (e.g., thyroxine (T4)) is adjusted to 50 to 100 mM in a 1- to 2-mL volume messflask. As a solvent, known solvents (water, alcohol) can be used. Ethanol is preferably used as the solvent.
For example, using ethanol as a solvent, T4 adjusted to 50 mM is diluted 500-fold, 5,000-fold, and 50,000-fold, respectively, and adjusted to […], 1 μM, and 100 nM. A feed can be prepared in this manner.
Artificial seawater is added to a breeding vessel, and 1/1000 of the […] T4 is added to prepare […] T4 breeding water.
Half of the breeding water is replaced every two days with breeding water of the same concentration. In the case where the concentration is changed, for example, in the case of changing from 10 nM to 2 nM, 80% to the breeding water is removed, and unadjusted artificial seawater is newly added to make 1 L.
Leptocephali visually considered to have reached a total length of 40 mm (or may be 30 mm to 50 mm, may be 35 mm to 45 mm, or may also be 35 mm or more, 40 mm or more, or 45 mm or more) are selected, anesthetized with 2-phenoxyethanol, and then photographed, and the total length of each larva is measured using an image analyzing device.
The larvae are placed in 10 nM T4 breeding water and then placed in an incubator set at 23° C., and breeding is started. In first one week, observation is performed every two days, and half of the 10 nM T4 breeding water is replaced each time. The average amount of thyroid hormone in the breeding water in stage 1 is 1 nM to 100 nM, for example, and may also be 3 nM to 30 nM, or 5 nM to 20 nM.
For larvae visually judged to have reached the second half of stage 2, the concentration of the breeding water is changed. The breeding water is diluted 5-fold or 10-fold and adjusted to 2 nM or 1 nM T4, and breeding is continued. The average amount of thyroid hormone in the breeding water in stage 2 may be, as compared with the breeding water of stage 1, diluted 2-fold to 20-fold, diluted 3 to 15-fold, or diluted 5 to 10-fold as described above. The average amount of thyroid hormone in the breeding water in stage 2 is 0.1 nM to 20 nM, for example, and may also be 0.5 nM to 10 nM, 1 nM to 5 nM, or 1 nM to 2 nM.
For larvae visually judged to have reached stage 3, the breeding water is quickly changed 0.2 nM T4 breeding water, which is a 5-fold dilution of 1 nM T4 breeding water, and further changed to 0.1 nM T4 breeding water on the following day. […] Also, in larvae whose anus position has not reached the last vertical hemal spine, when they are judged to be on the brink of stage 3, the concentration is changed as above. […]

Measured: Elver

N[C@@H](Cc1cc(I)c(Oc2cc(I)c(O)c(I)c2)c(I)c1)C(=O)O [T4, thyroxine]
Y: individual Exp 5-4, 175 days old, total length 43.5 mm at start of T4 treatment | individual Exp 5-5, 174 days old, total length 36.1 mm at start of T4 treatment | individual Exp. 5-1, 175 days old, total length 38.5 mm at start of T4 treatment | individual Exp. 5-2, 175 days old, total length 41.3 mm at start of T4 treatment | individual Exp. 5-3, 175 days old, total length 41.7 mm at start of T4 treatment
